Reference: patent US9440969B2, “Compounds and methods for kinase modulation, and indications therefor” (PLEXXIKON INC., priority 2009, dated 2016)

How the values were obtained:
[1] = target: B-Raf (Homo sapiens, UniProt P15056); assay: B-Raf kinase activity assay (AlphaScreen, biotin-MEK1 substrate); conditions: 100 μM ATP, 100 nM biotin-MEK1, 45 minutes at room temperature; read-out: Biochemical activity (IC50 μM) B-Raf
Procedure: (§1) Assays for biochemical and cell based activity are known in the art, for example, as described in PCT publication WO 2007/002433, the disclosure of which is hereby incorporated by reference as it relates to such assays. For example, the biochemical activity IC50 values are determined with respect to inhibition of B-Raf kinase activity, c-Raf-1 kinase activity, or B-Raf V600E kinase activity, where inhibition of phosphorylation of a peptide substrate is measured as a function of compound concentration. Compounds to be tested are diluted in dimethyl sulfoxide to a concentration of 0.1 mM. These are serially diluted 15 μL into 30 μL of dimethyl sulfoxide seven times in 96 well plates for a total of 8 dilution points, and for each dilution point 1 μL is added to a well of an assay plate. Plates are prepared such that each well in a 384 well plate contains 1 μL of compound in 10 μL, volume with 0.1 ng Raf enzyme (i.e. any of B-Raf, c-Raf-1 or B-Raf V600E, Upstate Biotechnology or prepared by methods known to one of skill in the art), 50 mM HEPES, pH 7.0, 50 mM NaCl, 2 mM MgCl2, 1 mM MnCl2, 0.01% Tween-20, 1 mM DTT, and 100 nM biotin-MEK1 as substrate. The reaction is started with addition of 10 μL of 200 μM ATP (i.e. final 100 μM ATP). After incubation of the kinase reaction for 45 minutes at room temperature, 5 μL/well of Stop Solution is added (25 mM Hepes pH 7.5, 100 mM EDTA, 0.01% BSA with donor beads (Streptavidin coated beads, Perkin Elmer), acceptor beads (Protein A coated, Perkin Elmer), and anti phosphor MEK1/2 antibody (CellSignal), each at final concentration 10 μg/mL). The plates are incubated for 3 hours at room temperature and read on Envision reader (Perkin Elmer). Phosphorylation of Mek1 results in binding of the anti-phosphor-MEK1/2 antibody and association of the donor and acceptor beads such that signal correlates with kinase activity. The signal vs. compound concentration is used to determine the IC50.

[2] = target: B-Raf V600E (Homo sapiens, UniProt P15056, V600E); assay: B-Raf V600E kinase activity assay (AlphaScreen, biotin-MEK1 substrate); conditions: 100 μM ATP, 100 nM biotin-MEK1, 45 minutes at room temperature, read-out: Biochemical activity (IC50 μM) V600E
B-Raf V600E, sequence (P15056 whole entry V600E): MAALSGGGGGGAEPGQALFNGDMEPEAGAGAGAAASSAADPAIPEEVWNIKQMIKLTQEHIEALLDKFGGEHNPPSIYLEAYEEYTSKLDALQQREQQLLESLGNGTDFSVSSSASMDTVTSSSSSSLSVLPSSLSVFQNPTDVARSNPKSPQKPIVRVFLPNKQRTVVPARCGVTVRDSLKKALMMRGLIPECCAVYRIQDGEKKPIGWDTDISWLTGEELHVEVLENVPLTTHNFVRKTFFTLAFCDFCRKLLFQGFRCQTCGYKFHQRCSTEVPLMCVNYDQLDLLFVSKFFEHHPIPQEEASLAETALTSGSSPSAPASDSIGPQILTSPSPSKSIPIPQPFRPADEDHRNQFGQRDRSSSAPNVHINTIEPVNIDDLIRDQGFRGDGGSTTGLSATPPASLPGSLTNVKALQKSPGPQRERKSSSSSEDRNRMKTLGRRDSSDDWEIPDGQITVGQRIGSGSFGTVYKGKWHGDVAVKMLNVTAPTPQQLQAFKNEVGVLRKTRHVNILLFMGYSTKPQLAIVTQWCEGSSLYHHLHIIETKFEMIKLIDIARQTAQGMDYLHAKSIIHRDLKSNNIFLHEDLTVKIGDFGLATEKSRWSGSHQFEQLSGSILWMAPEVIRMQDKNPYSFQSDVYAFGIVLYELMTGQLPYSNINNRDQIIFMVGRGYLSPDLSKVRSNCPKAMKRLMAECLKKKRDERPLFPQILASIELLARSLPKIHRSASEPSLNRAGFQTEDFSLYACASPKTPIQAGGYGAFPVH
Procedure: as §1

[3] = target: c-Raf-1 (Homo sapiens, UniProt P04049); assay: c-Raf-1 kinase activity assay (AlphaScreen, biotin-MEK1 substrate); conditions: 100 μM ATP, 100 nM biotin-MEK1, 45 minutes at room temperature; read-out: Biochemical activity (IC50 μM) c-Raf-1
c-Raf-1, sequence (P04049 whole entry Y340D/Y341D, form open): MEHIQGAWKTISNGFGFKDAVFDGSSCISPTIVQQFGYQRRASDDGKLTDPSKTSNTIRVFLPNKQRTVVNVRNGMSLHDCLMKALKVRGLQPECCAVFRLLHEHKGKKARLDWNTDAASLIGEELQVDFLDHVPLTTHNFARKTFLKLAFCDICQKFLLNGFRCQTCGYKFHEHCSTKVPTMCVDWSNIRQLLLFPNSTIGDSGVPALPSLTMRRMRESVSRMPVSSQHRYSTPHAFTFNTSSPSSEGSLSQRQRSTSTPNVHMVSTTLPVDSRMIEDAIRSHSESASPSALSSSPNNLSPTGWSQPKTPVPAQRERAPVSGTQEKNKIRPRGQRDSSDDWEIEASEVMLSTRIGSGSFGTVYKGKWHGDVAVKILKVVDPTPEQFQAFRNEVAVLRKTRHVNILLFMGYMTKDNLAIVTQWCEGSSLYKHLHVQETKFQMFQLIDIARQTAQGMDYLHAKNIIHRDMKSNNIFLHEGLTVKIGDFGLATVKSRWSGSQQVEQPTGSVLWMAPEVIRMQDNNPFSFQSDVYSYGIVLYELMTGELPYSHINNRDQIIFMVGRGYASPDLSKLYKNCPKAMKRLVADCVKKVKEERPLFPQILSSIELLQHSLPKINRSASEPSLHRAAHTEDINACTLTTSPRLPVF
Procedure: as §1

[4] = Relative solubility by turbidity in aqueous buffers (pH 1.5, 4.5, 6.8, 7.4); type: physicochemical; conditions: for turbidity threshold (L, M, H) 1.4: pH 1.5 buffer (SGF); for turbidity threshold (L, M, H) 4.5: pH 4.5 buffer (SIF); for turbidity threshold (L, M, H) 6.8: pH 6.8 buffer (SIF); for turbidity threshold (L, M, H) 7.4: pH 7.4 buffer (HEPES)
Procedure: As an indication of relative solubility, the turbidity of compounds in aqueous solutions is assessed. To assess possible compound properties in different physiological compartments, such as stomach, intestine, and blood, a series of aqueous buffers with varying pH is used. Thus each compound is diluted into four different physiologically relevant buffers and solution turbidity is measured by spectrophotometry.
Compounds are dissolved at a concentration of 25 mM in dimethyl sulfoxide, then serially diluted 1:1 into a 96 well plate, diluting 10 times in pure dimethyl sulfoxide, with the final well of each row a dimethyl sulfoxide blank. In an assay plate, 99 μL of appropriate buffer is added to each well, and 1 μL of each sample dilution is added to the buffer, achieving a range of final total concentrations in aqueous solutions having different pH. The buffers used are Simulated Gastric Fluid (SGF-pH 1.5) 0.5M NaCl, pH 1.5; Simulated Intestinal fluid (SIF-pH 4.5 and pH 6.8) 0.05M NaH2PO4, pH 4.5 and 6.8; and Hepes Buffer (HEPES-pH 7.4) 10 mM HEPES, 150 mM NaCl, pH 7.4. Control compounds pyrene, estriol and propranolol HCl are also assessed. Plates are spun and then mixed for 1 minute, and the absorbance is read using a Tecan Safire II to read wavelengths in the visible range (490, 535, and 650 nm) at four locations per well, reflecting the degree of turbidity present. The average optical density for each wavelength in each well is graphed vs. compound concentration, and the concentration at which the curve crosses a threshold O.D. of 0.01 for each wavelength is reported as the endpoint turbidity assay result. The average of the three wavelengths is used to compare turbidity of compounds. Compounds are considered to have low solubility if the threshold concentration is <31.3 μM, moderate solubility if the threshold concentration is 31.3 μM to 250 μM, and high solubility if the threshold concentration is >250 μM.
The following table indicates the relative solubility (L=low, M=moderate, H=high) based on turbidity threshold concentration at each pH for exemplary compounds according to the invention: […]

B-Raf, sequence (P15056 whole entry): as the sequence (P15056 whole entry V600E) above, with E600V counted along it

## CCCS(=O)(=O)Nc1ccc(F)c(C(=O)c2c[nH]c3ncc(-c4cccc5nccn45)cc23)c1F [P-0018, Propane-1-sulfonic acid [2,4-difluoro-3-(5-imidazo[1,2-a]pyridin-5-yl-1H-pyrrolo[2,3-b]pyridine-3-carbonyl)-phenyl]-amide]
[1]
  IC50: < 0.1 µM
[2]
  IC50: < 0.1 µM
[3]
  IC50: < 0.1 µM

## CCCS(=O)(=O)Nc1ccc(F)c(C(=O)c2c[nH]c3ncc(-c4ccc5ncncc5c4)cc23)c1F [P-0026, Propane-1-sulfonic acid [2,4-difluoro-3-(5-quinazolin-6-yl-1H-pyrrolo[2,3-b]pyridine-3-carbonyl)-phenyl]-amide]
[1]
  IC50: < 0.1 µM
[2]
  IC50: < 0.1 µM
[3]
  IC50: < 0.1 µM

## CC(C)(C)OC(=O)N1CCC(n2cc(-c3cnc4[nH]cc(C(=O)c5c(F)ccc(NS(=O)(=O)c6ccc(C(F)(F)F)cc6)c5F)c4c3)cn2)CC1 [P-1003, 4-(4-{3-[2,6-Difluoro-3-(4-trifluoromethyl-benzenesulfonylamino)-benzoyl]-1H-pyrrolo[2,3-b]pyridin-5-yl}-pyrazol-1-yl)-piperidine-1-carboxylic acid tert-butyl ester]
[1]
  IC50: < 0.1 µM
[2]
  IC50: < 10 µM

## CCCS(=O)(=O)Nc1ccc(F)c(C(=O)c2c[nH]c3ncc(-c4c(C)nn(-c5nnn[nH]5)c4C)cc23)c1F [P-1006, Propane-1-sulfonic acid (3-{5-[3,5-dimethyl-1-(1H-tetrazol-5-yl)-1H-pyrazol-4-yl]-1H-pyrrolo[2,3-b]pyridine-3-carbonyl}-2,4-difluoro-phenyl)-amide]
[1]
  IC50: < 0.1 µM
[2]
  IC50: < 0.1 µM
[3]
  IC50: < 0.1 µM

## CCCS(=O)(=O)Nc1ccc(F)c(C(=O)c2c[nH]c3ncc(-c4c(C)nn(S(=O)(=O)c5cn(C)nc5C)c4C)cc23)c1F [P-1007, Propane-1-sulfonic acid (3-{5-[1-(1,3-dimethyl-1H-pyrazole-4-sulfonyl)-3,5-dimethyl-1H-pyrazol-4-yl]-1H-pyrrolo[2,3-b]pyridine-3-carbonyl}-2,4-difluoro-phenyl)-amide]
[1]
  IC50: < 0.1 µM
[2]
  IC50: < 0.1 µM
[3]
  IC50: < 0.1 µM

## Cn1cc(-c2cnc3[nH]cc(C(=O)c4c(F)ccc(NS(=O)(=O)c5cc(F)ccc5F)c4F)c3c2)cn1 [P-1009, N-{2,4-Difluoro-3-[5-(1-methyl-1H-pyrazol-4-yl)-1H-pyrrolo[2,3-b]pyridine-3-carbonyl]-phenyl}-2,5-difluoro-benzenesulfonamide]
[1]
  IC50: < 0.1 µM
[2]
  IC50: < 0.1 µM
[3]
  IC50: < 0.1 µM

## CCCS(=O)(=O)Nc1ccc(F)c(C(=O)c2c[nH]c3ncc(-c4cnc(-n5cccn5)s4)cc23)c1F [P-1109, Propane-1-sulfonic acid {2,4-difluoro-3-[5-(2-pyrazol-1-yl-thiazol-5-yl)-1H-pyrrolo[2,3-b]pyridine-3-carbonyl]-phenyl}-amide]
[1]
  IC50: < 0.1 µM
[2]
  IC50: < 0.1 µM
[3]
  IC50: < 0.1 µM

## O=C(c1c(F)ccc(NS(=O)(=O)c2cc(F)ccc2F)c1F)c1c[nH]c2ncc(-c3cnco3)cc12 [P-1300, N-[2,4-Difluoro-3-(5-oxazol-5-yl-1H-pyrrolo[2,3-b]pyridine-3-carbonyl)-phenyl]-2,5-difluoro-benzenesulfonamide]
[1]
  IC50: < 0.1 µM
[2]
  IC50: < 0.1 µM
[3]
  IC50: < 0.1 µM

## O=C(c1c(F)ccc(NS(=O)(=O)c2cc(F)ccc2F)c1F)c1c[nH]c2ncc(-c3cccnc3)cc12 [P-1402, N-[2,4-Difluoro-3-(5-pyridin-3-yl-1H-pyrrolo[2,3-b]pyridine-3-carbonyl)-phenyl]-2,5-difluoro-benzenesulfonamide]
[1]
  IC50: < 0.1 µM
[2]
  IC50: < 0.1 µM
[3]
  IC50: < 0.1 µM

## O=C(c1c(F)ccc(NS(=O)(=O)c2cc(F)ccc2F)c1F)c1c[nH]c2ncc(-c3ccncc3)cc12 [P-1403, N-[2,4-Difluoro-3-(5-pyridin-4-yl-1H-pyrrolo[2,3-b]pyridine-3-carbonyl)-phenyl]-2,5-difluoro-benzenesulfonamide]
[1]
  IC50: < 0.1 µM
[2]
  IC50: < 0.1 µM
[3]
  IC50: < 0.1 µM

## O=C(c1c(F)ccc(NS(=O)(=O)c2cc(F)ccc2F)c1F)c1c[nH]c2ncc(-c3ccncc3F)cc12 [P-1405, N-{2,4-Difluoro-3-[5-(3-fluoro-pyridin-4-yl)-1H-pyrrolo[2,3-b]pyridine-3-carbonyl]-phenyl}-2,5-difluoro-benzenesulfonamide]
[1]
  IC50: < 0.1 µM
[2]
  IC50: < 0.1 µM
[3]
  IC50: < 0.1 µM

## CS(=O)(=O)c1cncc(-c2cnc3[nH]cc(C(=O)c4c(F)ccc(NS(=O)(=O)c5cc(F)ccc5F)c4F)c3c2)c1 [P-1407, N-{2,4-Difluoro-3-[5-(5-methanesulfonyl-pyridin-3-yl)-1H-pyrrolo[2,3-b]pyridine-3-carbonyl]-phenyl}-2,5-difluoro-benzenesulfonamide]
[1]
  IC50: < 0.1 µM
[2]
  IC50: < 0.1 µM
[3]
  IC50: < 0.1 µM

## CCCS(=O)(=O)Nc1ccc(F)c(C(=O)c2c[nH]c3ncc(-c4cnc(NC)nc4)cc23)c1F [P-1514, Propane-1-sulfonic acid {2,4-difluoro-3-[5-(2-methylamino-pyrimidin-5-yl)-1H-pyrrolo[2,3-b]pyridine-3-carbonyl]-phenyl}-amide]
[4]
  turbidity threshold (L, M, H) 1.4: L (low solubility if the threshold concentration is <31.3 μM)
  turbidity threshold (L, M, H) 4.5: L (low solubility if the threshold concentration is <31.3 μM)
  turbidity threshold (L, M, H) 6.8: M (moderate solubility if the threshold concentration is 31.3 μM to 250 μM)
  turbidity threshold (L, M, H) 7.4: L (low solubility if the threshold concentration is <31.3 μM)

## CCCS(=O)(=O)Nc1ccc(F)c(C(=O)c2c[nH]c3ncc(-c4cnc(NCCN(C)C)nc4)cc23)c1F [P-1515, Propane-1-sulfonic acid (3-{5-[2-(2-dimethylamino-ethylamino)-pyrimidin-5-yl]-1H-pyrrolo[2,3-b]pyridine-3-carbonyl}-2,4-difluoro-phenyl)-amide]
[4]
  turbidity threshold (L, M, H) 1.4: L (low solubility if the threshold concentration is <31.3 μM)
  turbidity threshold (L, M, H) 4.5: M (moderate solubility if the threshold concentration is 31.3 μM to 250 μM)
  turbidity threshold (L, M, H) 6.8: M (moderate solubility if the threshold concentration is 31.3 μM to 250 μM)
  turbidity threshold (L, M, H) 7.4: M (moderate solubility if the threshold concentration is 31.3 μM to 250 μM)

## CCCS(=O)(=O)Nc1ccc(F)c(C(=O)c2c[nH]c3ncc(-c4cnc(NCCCOC)nc4)cc23)c1F [P-1516, Propane-1-sulfonic acid (2,4-difluoro-3-{5-[2-(3-methoxy-propylamino)-pyrimidin-5-yl]-1H-pyrrolo[2,3-b]pyridine-3-carbonyl}-phenyl)-amide]
[4]
  turbidity threshold (L, M, H) 1.4: L (low solubility if the threshold concentration is <31.3 μM)
  turbidity threshold (L, M, H) 4.5: L (low solubility if the threshold concentration is <31.3 μM)
  turbidity threshold (L, M, H) 6.8: L (low solubility if the threshold concentration is <31.3 μM)
  turbidity threshold (L, M, H) 7.4: L (low solubility if the threshold concentration is <31.3 μM)
